# ChEMBL document CHEMBL5325442, “Diterpenoids and Their Glycosides from the Stems of Tinospora crispa with Beta-Cell Protective Activity” (2023)
# Activity calls are given as the source filed them. No cut-off for these calls is given here.
# Columns and labels:
# Assay type in all cases: functional
# [1] = tested on: BRIN-BD11; experiment: Protection against dexamethasone-induced cytotoxicity in rat BRIN-BD11 cells assessed as increase in cell viability at 400 uM incubated for 48 hrs by WST-1 reagent based assay
# [2] = tested on: BRIN-BD11; experiment: Protection against dexamethasone-induced cytotoxicity in rat BRIN-BD11 cells assessed as increase in cell viability incubated for 48 hrs by WST-1 reagent based assay; settings: dose <= 50.0 µM
# [3] = tested on: BRIN-BD11; experiment: Protection against dexamethasone-induced cytotoxicity in rat BRIN-BD11 cells assessed as increase in cell viability at 50 uM incubated for 48 hrs by WST-1 reagent based assay
# [4] = tested on: BRIN-BD11; experiment: Protection against dexamethasone-induced cell cycle arrest in rat BRIN-BD11 cells assessed as restoration of dexamethasone-induced increase in G1 phase cells at 50 uM incubated for 48 hrs by RNase A staining based FACS analysis
# [5] = tested on: BRIN-BD11; experiment: Protection against dexamethasone-induced cell cycle arrest in rat BRIN-BD11 cells assessed as restoration of dexamethasone-induced decrease in S phase cells at 50 uM incubated for 48 hrs by RNase A staining based FACS analysis
# [6] = tested on: BRIN-BD11; experiment: Protection against dexamethasone-induced cell cycle arrest in rat BRIN-BD11 cells assessed as restoration of dexamethasone-induced decrease in G2/M phase cells at 50 uM incubated for 48 hrs by RNase A staining based FACS analysis
Compound,Activity [1],Activity [2],Activity [3],Activity [4],Activity [5],Activity [6]
CCCCNC(=O)NS(=O)(=O)c1ccc(C)cc1,Active,–,–,–,–,–
C[C@@]12C[C@@H](c3ccoc3)OC(=O)[C@@H]1C[C@@H]1OC(=O)[C@@]3(O)[C@@H](O[C@@H]4O[C@H](CO)[C@@H](O)[C@H](O)[C@H]4O)CC[C@@H]2[C@@]13C,–,Active,–,–,–,–
COC(=O)C1=CCC[C@H]2[C@](C)(C[C@H](O[C@@H]3O[C@H](CO)[C@@H](O)[C@H](O)[C@H]3O)[C@@]3(O)[C@H](OC)O[C@H](OC)[C@H]3O)[C@H]3C[C@H](OC3=O)[C@@]12C,–,–,inactive,–,–,–
C[C@]12C[C@@H](c3ccoc3)OC(=O)[C@H]1CC[C@]1(C)[C@H]2[C@H]2C=C[C@]1(O[C@@H]1O[C@H](CO)[C@@H](O)[C@H](O)[C@H]1O)C(=O)O2,–,Dose-Dependent Effect,Active,inactive,inactive,inactive
COC(=O)C1=C[C@H](O)C[C@H]2[C@]3(C)C[C@@H](c4ccoc4)OC(=O)[C@@H]3C[C@@H](O[C@@H]3O[C@H](CO)[C@@H](O)[C@H](O)[C@H]3O)[C@@]12C,–,Active,–,–,–,–
COC(=O)C1=CCC[C@@H]2[C@](C)(CC(O[C@@H]3O[C@H](CO[C@@H]4O[C@H](CO)[C@@H](O)[C@H](O)[C@H]4O)[C@@H](O)[C@H](O)[C@H]3O)C3=CC(OC)OC3=O)[C@H]3C[C@H](OC3=O)[C@]12C (some centres not stated),–,–,Active,inactive,inactive,inactive
COC(=O)C1=C[C@H](O)C[C@H]2[C@](C)(C[C@H](O[C@@H]3O[C@H](CO)[C@@H](O)[C@H](O)[C@H]3O)c3ccoc3)[C@H]3C[C@H](OC3=O)[C@@]12C,–,Dose-Dependent Effect,Active,inactive,inactive,inactive
C[C@@]12C[C@@H](c3ccoc3)OC(=O)[C@@H]1C[C@@H](O[C@@H]1O[C@H](CO)[C@@H](O)[C@H](O)[C@H]1O)[C@@]13COC(=O)C1=CCC[C@@H]23,–,Active,–,–,–,–
COC(=O)C1=CCC[C@H]2[C@]3(C)C[C@@H](C4=CC(=O)OC4O)OC(=O)[C@@H]3C[C@@H](O[C@@H]3O[C@H](CO)[C@@H](O)[C@H](O)[C@H]3O)[C@@]12C (some centres not stated),–,–,Active,inactive,inactive,inactive
COC(=O)C1=CCC[C@H]2[C@](C)(CC(O[C@@H]3O[C@H](CO)[C@@H](O)[C@H](O)[C@H]3O)c3ccoc3)[C@H]3C[C@H](OC3=O)[C@@]12C (some centres not stated),–,Dose-Dependent Effect,Active,inactive,inactive,inactive
COC(=O)C1=C[C@H](O)C[C@@H]2[C@@]1(C)[C@@H](O[C@@H]1O[C@H](CO)[C@@H](O)[C@H](O)[C@H]1O)C=C1C(=O)O[C@H](c3ccoc3)C[C@]12C,–,Dose-Dependent Effect,Active,inactive,inactive,inactive
COC(=O)C1=CCC[C@H]2[C@]3(C)C[C@@H](C4=CC(O)OC4=O)OC(=O)[C@@H]3C[C@@H](O[C@@H]3O[C@H](CO)[C@@H](O)[C@H](O)[C@H]3O)[C@@]12C (some centres not stated),–,–,Active,–,–,–
C[C@@]1(CC(=O)O)[C@@H](C(=O)O)C[C@H]2OC(=O)C3=CCC[C@@H]1[C@]32C,–,–,inactive,–,–,–
COC(=O)C1=CCC[C@H]2[C@](C)(C[C@@H](O[C@@H]3O[C@H](CO[C@@H]4O[C@H](CO)[C@@H](O)[C@H](O)[C@H]4O)[C@@H](O)[C@H](O)[C@H]3O)c3ccoc3)[C@H]3C[C@H](OC3=O)[C@@]12C,–,–,Active,inactive,inactive,inactive
COC(=O)C1=CCC[C@H]2[C@]3(C)C[C@@H](c4ccoc4)OC(=O)[C@@H]3C[C@H](O[C@@H]3O[C@H](CO)[C@@H](O)[C@H](O)[C@H]3O)[C@@]12C,–,Dose-Dependent Effect,–,inactive,inactive,inactive
COC(=O)C1=CCC[C@H]2[C@]3(C)C[C@@H](C4=C[C@H](OC)OC4=O)OC(=O)[C@@H]3CC(O[C@@H]3O[C@H](CO)[C@@H](O)[C@H](O)[C@H]3O)[C@@]12C (some centres not stated),–,Active,–,–,–,–
COC(=O)C1=CCC[C@H]2[C@]3(C)C[C@@H](c4ccoc4)OC(=O)C3=CC(O[C@@H]3O[C@H](CO)[C@@H](O)[C@H](O)[C@H]3O)[C@@]12C (some centres not stated),–,Active,–,–,–,–
COC(=O)C1=CCC[C@@H]2[C@](C)(CC(O[C@@H]3O[C@H](CO)[C@@H](O)[C@H](O)[C@H]3O)C3=CC(O)OC3=O)[C@H]3C[C@H](OC3=O)[C@]12C (some centres not stated),–,Active,–,–,–,–
COC(=O)C1=C[C@H](O)C[C@H]2[C@]3(C)C[C@@H](c4ccoc4)OC(=O)[C@H]3C[C@H](O[C@@H]3O[C@H](CO)[C@@H](O)[C@H](O)[C@H]3O)[C@@]12C,–,Active,–,–,–,–
